Source: PubChem BioAssay (NCI)
Values joined by “and” are separate entries in the source; they are usually repeats but may differ in a detail not shown here. Equal entries are not always repeated.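 Where inhibition never reached the appropriate level, the endpoint shown equals the highest concentration tested. Otherwise, values were interpolated linearly from a five-concentration, 48-hour dose response in 96-well plates. Abbreviation: GI50, concentration required for 50% inhibition of growth. TGI: total growth inhibition.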

What was measured:
Experiment in all cases: DTP human tumour cell line panel, 48 h
A549 NSCLC = system: A549 NSCLC
CCRF-CEM leukemia = system: CCRF-CEM leukemia
M14 melanoma = system: M14 melanoma
MOLT-4 leukemia = system: MOLT-4 leukemia
SF-295 CNS = system: SF-295 CNS
SK-MEL-2 melanoma = system: SK-MEL-2 melanoma
SN12C renal = system: SN12C renal
TK-10 renal = system: TK-10 renal
PC-3 prostate = system: PC-3 prostate
MDA-MB-435 = system: MDA-MB-435

| SMILES | TGI (A549 NSCLC) [µM] | TGI (CCRF-CEM leukemia) [µM] | TGI (M14 melanoma) [µM] | TGI (MOLT-4 leukemia) [µM] | TGI (SF-295 CNS) [µM] | TGI (SK-MEL-2 melanoma) [µM] | TGI (SN12C renal) [µM] | TGI (TK-10 renal) [µM] | GI50 (A549 NSCLC) [µM] | GI50 (CCRF-CEM leukemia) | GI50 (M14 melanoma) [µM] | GI50 (MOLT-4 leukemia) | GI50 (PC-3 prostate) [µM] | TGI (PC-3 prostate) [µM] | GI50 (SF-295 CNS) [µM] | GI50 (SK-MEL-2 melanoma) [µM] | GI50 (SN12C renal) [µM] | GI50 (TK-10 renal) [µM] | GI50 (MDA-MB-435) [µM] | TGI (MDA-MB-435) [µM] |
| --- | --- | --- | --- | --- | --- | --- | --- | --- | --- | --- | --- | --- | --- | --- | --- | --- | --- | --- | --- | --- |
| O=c1/c(=C/c2ccccc2[N+](=O)[O-])sc2nc3ccccc3n12 | > 46.4 | 22.7 | > 46.4 | > 46.4 | 41.4 | > 46.4 | > 46.4 | > 46.4 | – | – | – | – | – | – | – | – | – | – | – | – |
| COC12CCC(=O)C=C1c1ccccc1N2C(C)=O (stereo unspecified) | > 100 | > 100 | – | > 100 | > 100 | > 100 | > 100 | – | – | – | – | – | – | – | – | – | – | – | – | – |
| CC(=O)c1ccc2c(c1)C1C=CCC1[C@H](c1cc3c(cc1Br)OCO3)N2 (stereo partly specified) | > 34.4 | 2.77 | 5.38 | 7.77 | 3.07 | 12.4 | > 33 | 37.1 | 2.03 | 0.644 µM | 0.765 | 1.03 µM | 0.636 | 7.04 | 0.382 | 1.22 | 1.64 | 2.04 | – | – |
| CCC[CH2][Sn]([Cl])([Cl])[CH2]CCC | 8.25 | 0.781 | 2.78 | 2.53 | 2.92 | 1.54 | 2.25 | 1.77 | 2.65 | 0.221 µM | 1.14 | 0.356 µM | – | – | 1.53 | 0.495 | 0.966 | 0.569 | – | – |
| C[C@@H]1C[C@H](C)CN(S(=O)(=O)c2ccc3c(NO)c4ccc(S(=O)(=O)N5C[C@H](C)C[C@H](C)C5)cc4c(N=O)c3c2)C1 | 0.327 | – | 0.231 | 0.194 | 0.338 | 0.403 | 0.399 | 0.321 | 0.17 | – | 0.103 | 0.0478 µM | 0.117 | 0.249 | 0.178 | 0.194 | 0.17 | 0.168 | 0.181 | 0.397 |
| COC(=O)C1C(O)CCC2CN3CCc4c([nH]c5ccccc45)C3CC21 (stereo unspecified) | > 100 | – | > 100 | > 100 | > 100 | > 100 | > 100 | > 100 | – | – | – | > 100 µM and 14.4 µM | – | > 100 | – | – | – | – | – | > 100 |
| CCc1ccc(NC(=O)NC(=O)c2ccccc2[N+](=O)[O-])cc1Oc1ncc(Cl)cn1 | > 100 | > 100 | > 100 | > 100 | – | – | > 100 | > 100 | – | – | – | – | – | > 100 | – | – | – | – | – | 0.0332 |
| C/C=C(/I)CBr | 66.7 | 23.4 | 28.7 | 55.9 | – | 28.4 | 34.1 | – | – | – | – | – | – | – | – | – | – | – | – | – |
| COc1ccc(/C=C/C(=O)/C=C/c2cc3ccccc3[nH]c2=O)cc1 | 12.6 | 9.68 | 8.92 | 9.24 | 8.02 | – | 6.73 | 17.4 | 3.16 | 2.98 µM | 2.8 | 3.2 µM | 2.38 | 7.81 | 2.65 | – | 2.41 | 5.45 | 2.22 | 5.07 |
| CC1=Nc2c(ccc3c2C(=O)c2ccccc2C3=O)NC(c2cccc3c2CCC3)C1 (stereo unspecified) | > 100 | > 100 | > 100 | > 100 | > 100 | > 100 | > 100 | > 100 | – | – | – | – | – | – | – | – | – | – | – | – |
| Cc1ccccc1NC(=O)c1cc(-c2ccc([N+](=O)[O-])cc2)nc(=S)[nH]1 | > 100 | – | > 100 | > 100 | > 100 | > 100 | > 100 | > 100 | – | – | – | – | – | – | – | – | – | – | – | – |
| CCOC(=O)C(=O)Nc1ccccc1C | > 100 | > 100 | > 100 | > 100 | – | > 100 | > 100 | > 100 | – | – | – | – | – | – | – | – | – | – | – | – |
| COc1ccc(OC)c(NC(=O)CCC/C(CC(=O)c2ccc(O)c(OC)c2)=N\Nc2nnc(C)n2N)c1 | > 100 | > 100 | > 100 | > 100 | > 100 | > 100 | > 100 | > 100 | – | – | – | – | – | – | – | – | – | – | – | – |
| N#Cc1ccccc1C(Cl)(Cl)c1cnccn1 | > 100 | 50.3 | – | 69.7 | > 100 | > 100 | > 100 | > 100 | – | – | – | – | – | – | – | – | – | – | – | – |
| CC(C)(C)c1cc(C(O)(C(F)(F)F)C(F)(F)F)c2c(c1)C(C(F)(F)F)(C(F)(F)F)OC(C)(C(C)(C)C)N2 (stereo unspecified) | 33.4 | – | 13.6 | 7.96 | 16.9 | 17.7 | 16.8 | – | – | – | – | – | – | – | – | – | – | – | – | – |
| COC(=O)/C=C(C)/C=C/C1OC(C)OCC1O (stereo unspecified) | > 100 | > 100 | > 100 | > 100 | > 100 | – | > 100 | > 100 | – | – | – | – | – | – | – | – | – | – | – | – |
| COc1ccc(NC(=O)/C(=C/c2ccccc2)C(C)=O)cc1 | 54.2 | 27.9 | 27.1 | 32.6 | 28.6 | 28.6 | 31.4 | 37.4 | – | – | – | – | – | – | – | – | – | – | – | – |
| CCOC(=O)C(Cc1c[nH]c2c(N(CCO)CCO)cccc12)(NC(C)=O)C(=O)OCC | > 1000 | 430 | > 1000 | – | > 1000 | – | 290 | > 1000 | > 1000 | 59.4 µM and 190 µM | > 1000 | – | 409 | > 1000 | 148 | – | 141 | > 1000 | 167 | 311 |
| CC(Oc1ccc2c(-c3ccccc3)cc(=O)oc2c1)C(=O)O (stereo unspecified) | > 100 | > 100 | > 100 | > 100 | > 100 | – | > 100 | > 100 | – | – | – | – | – | – | – | – | – | – | – | – |
| C=CCNc1nc2c(s1)C(=O)c1ccccc1C2=O | 19.3 | – | 16.7 | 10.6 | 28.2 | 25.9 | 27.4 | 34.2 | – | – | – | – | – | 30.3 | – | – | – | – | – | 3.31 |
| O=C(Cc1nc2ccccc2c(=O)n1-c1ccccc1Cl)c1ccncc1 | > 100 | > 100 | > 100 | > 100 | > 100 | > 100 | > 100 | > 100 | – | – | – | – | – | – | – | – | – | – | – | – |
